Laboratory results taken from article PMC6311682, “Design, Synthesis, and Biological Evaluation of 2-Nitroimidazopyrazin-one/-es with Antitubercular and Antiparasitic Activity” (Journal of Medicinal Chemistry, 2018).
Converted amounts (≈) assume the structure as drawn. Where two headings read alike, the source gives them in different places. Marks after values point to notes of the source that are not given here.

Key:
[1] = system: L. donovani MHOM/IN/80/DD8 (ATCC50212); assay: L. donovani DD8 intracellular (THP-1) amastigote assay; type: cell-based; conditions: Leishmania donovani
[2] = system: C. difficile (630, ATCC BAA-1382); assay: Broth microdilution MIC assay, C. difficile; type: cell-based, Clostridium difficile; conditions: 630 ATCC BAA-1382, median MIC; for MIC: Clostridioides difficile, ATCCBAA1382, read-out: antibacterial MIC C. difficile
[3] = Broth microdilution MIC assay, ESKAPE pathogens; type: cell-based; conditions: S. aureus, E. coli, K. pneumoniae, A. baumannii, P. aeruginosa; read-out: antibacterial MIC ESKAPE
[4] = system: ESKAPE pathogens S. aureus (ATCC 43300), E. coli (ATCC 25922), K. pneumoniae (ATCC 700603), A. baumannii (ATCC 19606), P. aeruginosa (ATCC 27853); assay: Broth microdilution MIC assay, ESKAPE pathogens; type: cell-based
[5] = system: C. albicans (ATCC 90028) and C. neoformans (H99, ATCC 208821); assay: Broth microdilution MIC assay, fungi; type: cell-based; conditions: for MIC: Candida albicans, read-out: antifungal MIC
[6] = Kinetic solubility determination by LC-UV; conditions: room temperature, 1% DMSO
[7] = Mammalian cytotoxicity assay (resazurin), HepG2; conditions: human, HepG2 cells
[8] = Mammalian cytotoxicity assay (resazurin), HEK293; conditions: human, HEK293 cells
HEK293 cells = system: HEK293 cells; parameters: method as in Jarrad et al. 2; conditions: ATCC CRL-1573; ref Jarrad et al. 2; read-out: cytotoxicity CC50 HEK 293; cited from earlier work
HepG2 cells = system: HepG2 cells; parameters: method as in Jarrad et al. 2; conditions: ATCC HB-8065; ref Jarrad et al. 2; read-out: cytotoxicity CC50 HepG2; cited from earlier work
[9] = read-out: antiparasitic IC50 L. donovani
[10] = read-out: antiparasitic pIC50 ± SE L. donovani (converted)
[11] = PBS, pH 7.4, Solubility µM (PBS), PBS pH 7.4, 24 h
[12] = water, Solubility µM (H2O), 24 h

Row | Compound | IC50 [1, 9] | IC50 [1, 10] | antibacterial MIC C. difficile [2] | MIC [2] | MIC [3] | antibacterial MIC ESKAPE [4] | antifungal MIC [5] | MIC [5] | solubility at 24 h [6, 11] | solubility at 24 h [6, 12] | CC50 at 24 h [7] | CC50 at 24 h [8] | CC50 (HEK293 cells) | CC50 (HepG2 cells)
1 | O=[N+]([O-])c1cn2cc(-c3ccccc3)nc(OCCO)c2n1 [24e, 2-((2-Nitro-6-phenylimidazo[1,2-a]pyrazin-8-yl)oxy)ethan-1-ol] | > 80 µM | > 79.4 µM | >64 µg/mL | > 64 µg/mL | 16 to 32 µg/mL (≈ 53.3 to 107 µM) | 16-32* μg/mL | >32 µg/mL | > 32 µg/mL | < 5 µM | < 5 µM | > 100 µM | > 100 µM |  | 
2 | Cc1cn2cc([N+](=O)[O-])nc2c(OCCO)n1 [25e, 2-((6-Methyl-2-nitroimidazo[1,2-a]pyrazin-8-yl)oxy)ethan-1-ol] | > 80 µM | > 79.4 µM | >64 µg/mL | > 64 µg/mL | > 32 µg/mL | >32 µg/mL | >32 µg/mL | > 32 µg/mL | 193 ± 3.28 µM (≈ 46 µg/mL) | 196 ± 1.45 µM (≈ 46.7 µg/mL) | > 100 µM | > 100 µM |  | 
3 | Cc1nc(OCc2cccc(OC(F)(F)F)c2)c2nc([N+](=O)[O-])cn2c1C [26g, 5,6-Dimethyl-2-nitro-8-((3-(trifluoromethoxy)benzyl)oxy)imidazo[1,2-a]pyrazine] | > 20 µM | > 20 µM |  |  | > 32 µg/mL | >32 µg/mL | >32 µg/mL | > 32 µg/mL | < 5 µM | < 5 µM | > 100 µM | > 100 µM |  | 
4 | CC(=O)OCCOc1nc(-c2ccccc2)cn2cc([N+](=O)[O-])nc12 [24c, 2-((2-Nitro-6-phenylimidazo[1,2-a]pyrazin-8-yl)oxy)ethyl Acetate] | > 80 µM | > 79.4 µM | >64 µg/mL | > 64 µg/mL | > 32 µg/mL | >32 µg/mL | >32 µg/mL | > 32 µg/mL | < 5 µM | < 5 µM | > 100 µM | > 100 µM |  | 
5 | CNC(=O)c1nc([N+](=O)[O-])cn1Cc1ccc(OC(F)(F)F)cc1 [28g] |  |  |  |  |  |  |  |  |  |  |  |  | > 100 µM | > 100 µM
6 | CN(C)C(=O)c1nc([N+](=O)[O-])cn1Cc1ccc(OC(F)(F)F)cc1 [28h] |  |  |  |  |  |  |  |  |  |  |  |  | > 100 µM | > 100 µM
7 | Cc1ccc(Cn2c(C)c(C)n3cc([N+](=O)[O-])nc3c2=O)cc1 [26d, 5,6-Dimethyl-7-(4-methylbenzyl)-2-nitroimidazo[1,2-a]pyrazin-8(7H)-one] | > 40 µM | > 39.8 µM |  |  | > 32 µg/mL | >32 µg/mL | >32 µg/mL | > 32 µg/mL | 6.13 ± 0.0957 µM (≈ 1.91 µg/mL) | 8.95 ± 1.51 µM (≈ 2.8 µg/mL) | > 100 µM | > 100 µM |  | 
8 | CCOC(=O)c1nc([N+](=O)[O-])cn1Cc1ccc(OC(F)(F)F)cc1 [28i] |  |  |  |  |  |  |  |  |  |  |  |  | > 100 µM | > 100 µM
9 | Cc1[nH]c(=O)c2nc([N+](=O)[O-])cn2c1C [26a, 5,6-Dimethyl-2-nitroimidazo[1,2-a]pyrazin-8(7H)-one] | > 80 µM | > 79.4 µM | >64 µg/mL | > 64 µg/mL | > 32 µg/mL | >32 µg/mL | >32 µg/mL | > 32 µg/mL | > 200 µM | > 200 µM | > 100 µM | > 100 µM |  | 
10 | Cc1cn2cc([N+](=O)[O-])nc2c(=O)n1Cc1ccccc1OC(F)(F)F [25l, 6-Methyl-2-nitro-7-(2-(trifluoromethoxy)benzyl)imidazo[1,2-a]pyrazin-8(7H)-one] | > 40 µM | > 39.8 µM |  |  | > 32 µg/mL | >32 µg/mL | >32 µg/mL | > 32 µg/mL | < 5 µM | < 5 µM | > 100 µM | > 100 µM |  | 
11 | CC(=O)OCCOc1nc(C)cn2cc([N+](=O)[O-])nc12 [25c, 2-((6-Methyl-2-nitroimidazo[1,2-a]pyrazin-8-yl)oxy)ethyl] | > 80 µM | > 79.4 µM | >64 µg/mL | > 64 µg/mL | > 32 µg/mL | >32 µg/mL | >32 µg/mL | > 32 µg/mL | 185 ± 2.69 µM (≈ 51.8 µg/mL) | 169 ± 11 µM (≈ 47.4 µg/mL) | > 100 µM | > 100 µM |  | 
12 | NC(=O)c1nc([N+](=O)[O-])cn1Cc1ccc(F)cc1 [28e] |  |  |  |  |  |  |  |  |  |  |  |  | > 100 µM | > 100 µM
13 | O=C(NCc1ccc(F)cc1)c1ncc([N+](=O)[O-])[nH]1 [16e] |  |  |  |  |  |  |  |  |  |  |  |  | > 100 µM | > 100 µM
14 | Cc1nc(OCc2ccc(OC(F)(F)F)cc2)c2nc([N+](=O)[O-])cn2c1C [26c, 5,6-Dimethyl-2-nitro-8-((4-(trifluoromethoxy)benzyl)oxy)imidazo[1,2-a]pyrazine] | > 80 µM | > 79.4 µM | >64 µg/mL | > 64 µg/mL | > 32 µg/mL | >32 µg/mL | >32 µg/mL | > 32 µg/mL | < 5 µM | < 5 µM | > 100 µM | > 100 µM |  | 
15 | Cc1cn2cc([N+](=O)[O-])nc2c(=O)n1CCO [25d, 7-(2-Hydroxyethyl)-6-methyl-2-nitroimidazo[1,2-a]pyrazin-8(7H)-one] | > 80 µM | > 79.4 µM | >64 µg/mL | > 64 µg/mL | > 32 µg/mL | >32 µg/mL | >32 µg/mL | > 32 µg/mL | > 200 µM | > 200 µM | > 100 µM | > 100 µM |  | 
16 | NC(=O)c1nc([N+](=O)[O-])cn1Cc1cccc(OC(F)(F)F)c1 [28f] |  |  |  |  |  |  |  |  |  |  |  |  | > 100 µM | > 100 µM
17 | Cc1cn2cc([N+](=O)[O-])nc2c(=O)[nH]1 [25a, 6-Methyl-2-nitroimidazo[1,2-a]pyrazin-8(7H)-one] | > 80 µM | > 79.4 µM | >64 µg/mL | > 64 µg/mL | > 32 µg/mL | >32 µg/mL | >32 µg/mL | > 32 µg/mL | 183 ± 29.2 µM (≈ 35.5 µg/mL) | 182 ± 18.2 µM (≈ 35.3 µg/mL) | > 100 µM | > 100 µM |  | 
18 | Cc1cn2cc([N+](=O)[O-])nc2c(=O)n1Cc1cccc(OC(F)(F)F)c1 [25j, 6-Methyl-2-nitro-7-(3-(trifluoromethoxy)benzyl)imidazo[1,2-a]pyrazin-8(7H)-one] | > 20 µM | > 20 µM |  |  | > 32 µg/mL | >32 µg/mL | >32 µg/mL | > 32 µg/mL | < 5 µM | < 5 µM | > 100 µM | > 100 µM |  | 
19 | Cc1ccc(Cn2c(C)cn3cc([N+](=O)[O-])nc3c2=O)cc1 [25h, 6-Methyl-7-(4-methylbenzyl)-2-nitroimidazo[1,2-a]pyrazin-8(7H)-one] | > 40 µM | > 39.8 µM |  |  | > 32 µg/mL | >32 µg/mL | >32 µg/mL | > 32 µg/mL |  | 7.5 ± 0.245 µM (≈ 2.24 µg/mL) | > 100 µM | > 100 µM |  | 
20 | Cc1ccc(COc2nc(C)c(C)n3cc([N+](=O)[O-])nc23)cc1 [26e, 5,6-Dimethyl-8-((4-methylbenzyl)oxy)-2-nitroimidazo[1,2-a]pyrazine] | > 20 µM | > 20 µM |  |  | > 32 µg/mL | >32 µg/mL | >32 µg/mL | > 32 µg/mL | < 5 µM | < 5 µM | > 100 µM | > 100 µM |  | 
21 | NC(=O)c1nc([N+](=O)[O-])cn1Cc1ccc(OC(F)(F)F)cc1 [28c] |  |  |  |  |  |  |  |  |  |  |  |  | > 100 µM | > 100 µM
22 | NNC(=O)c1nc([N+](=O)[O-])cn1Cc1ccc(OC(F)(F)F)cc1 [28k] |  |  |  |  |  |  |  |  |  |  |  |  | > 100 µM | > 100 µM
23 | Cc1ncc([N+](=O)[O-])n1CCO [metronidazole 1, metronidazole, reference compound] |  |  |  |  | > 32 µg/mL |  |  | > 32 µg/mL |  |  | > 100 µM | > 100 µM | > 100 µM | > 100 µM
24 | O=C(NCc1cccc(OC(F)(F)F)c1)c1ncc([N+](=O)[O-])[nH]1 [16f] |  |  |  |  |  |  |  |  |  |  |  |  | > 100 µM | > 100 µM
